Laboratory results from patent publication US20250145665A1, “MACROCYCLIC PEPTIDES USEFUL AS MODULATORS OF TNF ALPHA” (Bristol-Myers Squibb Company, priority 2023, published 2025).
Positions of bridges follow the written chain, without caps; N, C: chain ends. Non-standard residues stand in square brackets, D forms with d. Residues, ends and D or L forms follow the SMILES beside them. Bip(4'-COOH) = N[C@@H](Cc1ccc(-c2ccc(C(=O)O)cc2)cc1)C(=O)O; Bip(4'-NHAc) = CC(=O)Nc1ccc(-c2ccc(C[C@H](N)C(=O)O)cc2)cc1; Ala(morpholin-4-yl) = N[C@@H](CN1CCOCC1)C(=O)O; Phe(3-CONH2) = NC(=O)c1cccc(C[C@H](N)C(=O)O)c1; Bip = N[C@@H](Cc1ccc(-c2ccccc2)cc1)C(=O)O; Ala(2-furyl) = N[C@@H](Cc1ccco1)C(=O)O; Abu(3S-NH2) = C[C@H](N)[C@H](N)C(=O)O; 2Thi = N[C@@H](Cc1cccs1)C(=O)O; Cha = N[C@@H](CC1CCCCC1)C(=O)O; Chg = N[C@H](C(=O)O)C1CCCCC1; Dab = NCC[C@H](N)C(=O)O; Sar = CNCC(=O)O

Molecular target: TNFα (Homo sapiens, UniProt P01375)
Sequence (P01375 77-233 limits assumed): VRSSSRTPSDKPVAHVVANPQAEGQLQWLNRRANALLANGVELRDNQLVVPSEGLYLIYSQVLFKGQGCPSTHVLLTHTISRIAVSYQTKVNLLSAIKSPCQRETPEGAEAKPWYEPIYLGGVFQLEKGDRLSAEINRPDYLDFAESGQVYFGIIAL
Assay: TNF-Induced HEK-Blue Assay
Format: cell-based
Conditions: HEK-Blue-CD40L cells, NF-kB-driven secreted alkaline phosphatase reporter; TNFα 0.5 ng/ml; 18 h; read-out: TNF induced HEK-Blue assay IC50 value

SMILES | IC50 [nM]
CC(=O)Nc1ccc(-c2ccc(C[C@@H]3NC(=O)[C@H](Cc4ccc(-c5ccc(C(=O)O)cc5)cc4)NC(=O)[C@H](CC4CCCCC4)NC(=O)CSC[C@@H](C(=O)N[C@@H](CCN)C(N)=O)NC(=O)[C@H](CC(C)C)NC(=O)[C@H](Cc4ccc(O)cc4)NC(=O)[C@H](C(C)C)NC(=O)[C@@H]4CCCN4C(=O)[C@H](C(C)C)NC(=O)[C@@H](CCCNC(=N)N)NC(=O)[C@H](CC(=O)O)NC(=O)[C@@H]4CCCN4C(=O)CN(C)C3=O)cc2)cc1 [Example 243] ({CH2CO}-[Cha][Bip(4'-COOH)][Bip(4'-NHAc)][Sar]PD[dR]VPVYLC[Dab]-NH2; thioether N-13) | 50 to 200
CC(=O)Nc1ccc(-c2ccc(C[C@@H]3NC(=O)[C@H](Cc4ccc(-c5ccc(C(=O)O)cc5)cc4)NC(=O)[C@H](CC4CCCCC4)NC(=O)CSC[C@@H](C(=O)N[C@@H](CCC(N)=O)C(N)=O)NC(=O)[C@H](CC(C)C)NC(=O)[C@H](Cc4ccc(O)cc4)NC(=O)[C@H](C(C)C)NC(=O)[C@@H]4CCCN4C(=O)[C@H](C(C)C)NC(=O)[C@@H](CCCNC(=N)N)NC(=O)[C@H](CC(=O)O)NC(=O)[C@@H]4CCCN4C(=O)CN(C)C3=O)cc2)cc1 [Example 244] ({CH2CO}-[Cha][Bip(4'-COOH)][Bip(4'-NHAc)][Sar]PD[dR]VPVYLCQ-NH2; thioether N-13) | 200 to 2000
CC(=O)Nc1ccc(-c2ccc(C[C@@H]3NC(=O)[C@H](Cc4ccc(-c5ccc(C(=O)O)cc5)cc4)NC(=O)[C@H](CC4CCCCC4)NC(=O)CSC[C@@H](C(=O)NCC(N)=O)NC(=O)[C@H](CC(C)C)NC(=O)[C@H](Cc4cccs4)NC(=O)[C@H](C(C)C)NC(=O)[C@@H]4CCCN4C(=O)[C@H](C(C)C)NC(=O)[C@@H](CCCNC(=N)N)NC(=O)[C@H](CC(=O)O)NC(=O)[C@@H]4CCCN4C(=O)CN(C)C3=O)cc2)cc1 [Example 245] ({CH2CO}-[Cha][Bip(4'-COOH)][Bip(4'-NHAc)][Sar]PD[dR]VPV[2Thi]LCG-NH2; thioether N-13) | 200 to 2000
CC(=O)Nc1ccc(-c2ccc(C[C@@H]3NC(=O)[C@H](Cc4ccc(-c5ccc(C(=O)O)cc5)cc4)NC(=O)[C@H](CC4CCCCC4)NC(=O)CSC[C@@H](C(=O)NCC(N)=O)NC(=O)[C@H](CC(C)C)NC(=O)[C@H](Cc4ccco4)NC(=O)[C@H](C(C)C)NC(=O)[C@@H]4CCCN4C(=O)[C@H](C(C)C)NC(=O)[C@@H](CCCNC(=N)N)NC(=O)[C@H](CC(=O)O)NC(=O)[C@@H]4CCCN4C(=O)CN(C)C3=O)cc2)cc1 [Example 246] ({CH2CO}-[Cha][Bip(4'-COOH)][Bip(4'-NHAc)][Sar]PD[dR]VPV[Ala(2-furyl)]LCG-NH2; thioether N-13) | 50 to 200
CC(=O)Nc1ccc(-c2ccc(C[C@@H]3NC(=O)[C@H](Cc4ccc(-c5ccc(C(=O)O)cc5)cc4)NC(=O)[C@H](CC4CCCCC4)NC(=O)CSC[C@@H](C(=O)NCC(N)=O)NC(=O)[C@H](CC(C)C)NC(=O)[C@H](Cc4ccc(O)cc4)NC(=O)[C@H](C(C)C)NC(=O)[C@@H]4CCCN4C(=O)[C@H](CC(N)=O)NC(=O)[C@@H](CCCNC(=N)N)NC(=O)[C@H](CC(=O)O)NC(=O)[C@@H]4CCCN4C(=O)CN(C)C3=O)cc2)cc1 [Example 247] ({CH2CO}-[Cha][Bip(4'-COOH)][Bip(4'-NHAc)][Sar]PD[dR]NPVYLCG-NH2; thioether N-13) | 50 to 200
CC(=O)Nc1ccc(-c2ccc(C[C@@H]3NC(=O)[C@H](Cc4ccc(-c5ccc(C(=O)O)cc5)cc4)NC(=O)[C@H](CC4CCCCC4)NC(=O)CSC[C@@H](C(=O)NCC(N)=O)NC(=O)[C@H](CC(C)C)NC(=O)[C@H](Cc4cnc[nH]4)NC(=O)[C@H](C(C)C)NC(=O)[C@@H]4CCCN4C(=O)[C@H](CC(N)=O)NC(=O)[C@@H](CCCNC(=N)N)NC(=O)[C@H](CC(=O)O)NC(=O)[C@H](Cc4ccc(O)cc4)NC(=O)CN(C)C3=O)cc2)cc1 [Example 248] ({CH2CO}-[Cha][Bip(4'-COOH)][Bip(4'-NHAc)][Sar]YD[dR]NPVHLCG-NH2; thioether N-13) | 50 to 200
CC(=O)Nc1ccc(-c2ccc(C[C@@H]3NC(=O)[C@H](Cc4ccc(-c5ccccc5)cc4)NC(=O)[C@H](CC4CCCCC4)NC(=O)CSC[C@@H](C(=O)N[C@@H](CCC(=O)O)C(N)=O)NC(=O)[C@H](CC(C)C)NC(=O)[C@H](Cc4cnc[nH]4)NC(=O)[C@H](C(C)C)NC(=O)[C@@H]4CCCN4C(=O)[C@H](C(C)C)NC(=O)[C@@H](CCCNC(=N)N)NC(=O)[C@H](CC(=O)O)NC(=O)[C@H](Cc4ccc(O)cc4)NC(=O)CN(C)C3=O)cc2)cc1 [Example 249] ({CH2CO}-[Cha][Bip][Bip(4'-NHAc)][Sar]YD[dR]VPVHLCE-NH2; thioether N-13) | 50 to 200

Results, then the compound that gave them:

IC50 [nM] | SMILES
50 to 200 | CC(=O)Nc1ccc(-c2ccc(C[C@@H]3NC(=O)[C@H](Cc4ccc(-c5ccc(C(=O)O)cc5)cc4)NC(=O)[C@H](CN4CCOCC4)NC(=O)CSC[C@@H](C(=O)NCC(N)=O)NC(=O)[C@H](CC(C)C)NC(=O)[C@H](Cc4ccc(O)cc4)NC(=O)[C@H](C4CCCCC4)NC(=O)[C@@H]4CCCN4C(=O)[C@H](C(C)C)NC(=O)[C@@H](CCCNC(=N)N)NC(=O)[C@H](CC(=O)O)NC(=O)[C@@H]4CCCN4C(=O)CN(C)C3=O)cc2)cc1 [Example 237] ({CH2CO}-[Ala(morpholin-4-yl)][Bip(4'-COOH)][Bip(4'-NHAc)][Sar]PD[dR]VP[Chg]YLCG-NH2; thioether N-13)
< 50 | CC[C@H](C)[C@@H]1NC(=O)[C@@H](CCCNC(=N)N)NC(=O)[C@H](CC(=O)O)NC(=O)[C@H](Cc2cnc[nH]2)NC(=O)CN(C)C(=O)[C@H](Cc2ccc(-c3ccc(NC(C)=O)cc3)cc2)NC(=O)[C@H](Cc2ccc(-c3ccccc3)cc2)NC(=O)[C@H](CN2CCOCC2)NC(=O)CSC[C@@H](C(=O)NCC(N)=O)NC(=O)[C@H](CC(C)C)NC(=O)[C@H](Cc2cnc[nH]2)NC(=O)[C@H](C(C)C)NC(=O)[C@@H]2CCCN2C1=O [Example 238] ({CH2CO}-[Ala(morpholin-4-yl)][Bip][Bip(4'-NHAc)][Sar]HD[dR]IPVHLCG-NH2; thioether N-13)
50 to 200 | CC(=O)Nc1ccc(-c2ccc(C[C@@H]3NC(=O)[C@H](Cc4ccc(-c5ccccc5)cc4)NC(=O)[C@H](CC4CCCCC4)NC(=O)CSC[C@@H](C(=O)NCC(N)=O)NC(=O)[C@H](CC(C)C)NC(=O)[C@H](Cc4ccc(O)cc4)NC(=O)[C@H](C(C)C)NC(=O)[C@@H]4CCCN4C(=O)[C@H]([C@H](C)N)NC(=O)[C@@H](CCCNC(=N)N)NC(=O)[C@H](CC(=O)O)NC(=O)[C@@H]4CCCN4C(=O)CN(C)C3=O)cc2)cc1 [Example 239] ({CH2CO}-[Cha][Bip][Bip(4'-NHAc)][Sar]PD[dR][Abu(3S-NH2)]PVYLCG-NH2; thioether N-13)
50 to 200 | CC(=O)Nc1ccc(-c2ccc(C[C@@H]3NC(=O)[C@H](Cc4ccc(-c5ccccc5)cc4)NC(=O)[C@H](CC4CCCCC4)NC(=O)CSC[C@@H](C(=O)NCC(N)=O)NC(=O)[C@H](CC(C)C)NC(=O)[C@H](Cc4cccc(C(N)=O)c4)NC(=O)[C@H](C(C)C)NC(=O)[C@@H]4CCCN4C(=O)[C@H](C(C)C)NC(=O)[C@@H](CCCNC(=N)N)NC(=O)[C@H](CC(=O)O)NC(=O)[C@@H]4CCCN4C(=O)CN(C)C3=O)cc2)cc1 [Example 240] ({CH2CO}-[Cha][Bip][Bip(4'-NHAc)][Sar]PD[dR]VPV[Phe(3-CONH2)]LCG-NH2; thioether N-13)
